According to paper PMC5607274, “An iterative compound screening contest method for identifying target protein inhibitors using the tyrosine-protein kinase Yes” (Scientific Reports, 2017):

Biological target: T1, human recombinant Yes [a.a. 2–543 (end)] (Homo sapiens, UniProt P07947)
T1 construct: human recombinant Yes [a.a; 2–543 (end)]; purchased BPS Bioscience 40488
Assay: ADP-Glo kinase assay, inhibition rates of Yes phosphorylation activity (first and second screening)
Type: biochemical
Conditions: 10 μmol L−1 compound; for First screening IR (inhibition rate): mean of n = 4 wells; for Second screening IR (inhibition rate): dissolved from fresh powder, n = 4
Outline: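 ADP-Glo luminescence measured inhibition of human recombinant Yes (a.a. 2–543) phosphorylation activity. In the first screen, each compound ran in 4 wells and inhibition rates were averaged. The second screen retested hits as compounds dissolved from fresh powder.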

T1 sequence (P07947 2-543): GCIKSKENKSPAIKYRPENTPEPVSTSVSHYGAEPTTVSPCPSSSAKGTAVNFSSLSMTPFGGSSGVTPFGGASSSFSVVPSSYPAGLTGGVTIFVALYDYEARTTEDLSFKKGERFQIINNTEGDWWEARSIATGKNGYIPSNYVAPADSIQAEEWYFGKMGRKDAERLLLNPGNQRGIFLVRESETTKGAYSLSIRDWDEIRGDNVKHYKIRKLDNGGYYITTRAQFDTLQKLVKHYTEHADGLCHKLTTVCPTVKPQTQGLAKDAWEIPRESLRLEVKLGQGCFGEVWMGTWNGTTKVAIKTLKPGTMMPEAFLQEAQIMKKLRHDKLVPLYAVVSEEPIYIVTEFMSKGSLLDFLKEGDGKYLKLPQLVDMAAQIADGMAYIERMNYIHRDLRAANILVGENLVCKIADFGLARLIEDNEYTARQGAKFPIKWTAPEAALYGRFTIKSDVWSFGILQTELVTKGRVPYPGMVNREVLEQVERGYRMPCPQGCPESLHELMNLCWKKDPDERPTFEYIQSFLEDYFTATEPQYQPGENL

Compound | First screening IR (inhibition rate) | Second screening IR (inhibition rate)
CN1C/C(=C/c2ccc3c(c2)OCO3)c2nc3ccccc3c(C(=O)O)c2C1 [Compound Z46114673] | -9% | 
CN1C/C(=C/c2ccc(F)cc2)c2nc3ccccc3c(C(=O)O)c2C1 [Compound Z46114693] | -2% | 
CN1C/C(=C/c2cccc(Br)c2)c2nc3ccccc3c(C(=O)O)c2C1 [Compound Z46114695] | -9% | 
COc1ccc(/C=C2/CN(C)Cc3c2nc2ccccc2c3C(=O)O)cc1 [Compound Z46114702] | -7% | 
CCc1ccc(/C=C2/CN(C)Cc3c2nc2ccccc2c3C(=O)O)cc1 [Compound Z46114754] | 0% | 
CCC(C)(C)C1C/C(=C/c2ccc(C(C)C)cc2)c2nc3ccccc3c(C(=O)O)c2C1 (stereo not drawn) [Compound Z46116606] | 13% | 
CCC(C)(C)C1C/C(=C/c2cc(Br)c(O)c(OC)c2)c2nc3ccccc3c(C(=O)O)c2C1 (stereo not drawn) [Compound Z46116622] | 5% | 
CCC(C)(C)C1C/C(=C\c2c(Cl)cccc2Cl)c2nc3ccccc3c(C(=O)O)c2C1 (stereo not drawn) [Compound Z46116634] | 45% | 
CCC(C)(C)C1C/C(=C/c2ccccc2Br)c2nc3ccccc3c(C(=O)O)c2C1 (stereo not drawn) [Compound Z46116650] | 23% | 
CCC(C)(C)C1C/C(=C/c2ccc(Sc3nncn3C)c([N+](=O)[O-])c2)c2nc3ccccc3c(C(=O)O)c2C1 (stereo not drawn) [Compound Z46116775] | 11% | 
CCN1C/C(=C/c2ccc(F)cc2)c2nc3ccccc3c(C(=O)O)c2C1 [Compound Z46146538] | 5% | 
COc1ccccc1N1CCN(Cc2csc(NC(C)=O)n2)CC1 [Compound Z46164581] | 3% | 
CCOc1ccc(NC(=O)c2ccccc2NC(=O)CN2CCOCC2)cc1 [Compound Z46179735] | 14% | 
CCN(C(=O)CN1CCN(Cc2ccc3c(c2)OCO3)CC1)c1c(N)n(Cc2ccccc2)c(=O)[nH]c1=O [Compound Z46204583] | 4% | 
O=C(CN1CCN(S(=O)(=O)c2cccc(Cl)c2Cl)CC1)NC1CCCCCC1 [Compound Z46278335] | -12% | 
CCN(CC(=O)N1N=C(c2ccc(OC)cc2)CC1c1ccco1)Cc1nc2ccccc2c(=O)[nH]1 (stereo not drawn) [Compound Z46301463] | -6% | 
CN(CCS(=O)(=O)c1cc(Cl)ccc1Cl)Cc1nc2ccccc2c(=O)[nH]1 [Compound Z46302626] | -9% | 
Cc1ccc(C)c(S(=O)(=O)CCN(C)Cc2nc3ccccc3c(=O)[nH]2)c1 [Compound Z46302631] | -9% | 
CN(CC(=O)N1CCc2ccccc2C1)Cc1nc2ccccc2c(=O)[nH]1 [Compound Z46302902] | -12% | 
CCOC(=O)c1c(-c2ccc(OC)cc2)csc1NC(=O)CN1CCN(c2cccc(OC)c2)CC1 [Compound Z46356995] | 9% | 
CCOC(=O)c1c(-c2ccc(OC)c(OC)c2)csc1NC(=O)CN1CCN(c2cccc(OC)c2)CC1 [Compound Z46357060] | 5% | 
CCN(C(=O)CN(C)CC(=O)Nc1ccc(Cl)cc1)c1cccc2ccccc12 [Compound Z46378572] | 33% | 

Compound | First screening IR (inhibition rate) | Second screening IR (inhibition rate)
COc1cccc(NC(=O)CN(C)CC(=O)Nc2cc(Cl)ccc2C#N)c1 [Compound Z46385937] | 3% | 
CCOC(=O)c1c(-c2ccc(F)cc2)csc1NC(=O)CN1CCN(Cc2cc(OC)ccc2OC)CC1 [Compound Z46402002] | 5% | 
CCn1c(CN2CCN(C(=O)c3ccccc3)CC2)nc2cc(S(=O)(=O)N3CCOCC3)ccc21 [Compound Z46404320] | 1% | 
CCOC(=O)c1c(-c2ccc(OC)c(OC)c2)csc1NC(=O)CN1CCN(C(=O)c2ccccc2)CC1 [Compound Z46404770] | 2% | 
CCOC(=O)C1=C(CN2CCN(Cc3nc4sc5c(c4c(=O)[nH]3)CCCC5)CC2)NC(=O)NC1CC (stereo not drawn) [Compound Z46405175] | 0% | 
CCN(C(=O)CN(C)CC(=O)Nc1c(C)cc(C)cc1C)c1cccc2ccccc12 [Compound Z46455760] | -4% | 
Cc1sc2nc(-c3cccc(NC(=O)CN4CCN(CC5CCCO5)CC4)c3)[nH]c(=O)c2c1C (stereo not drawn) [Compound Z46510296] | 2% | 
Cc1cccc(/C=C/c2cc(C(=O)O)c3ccccc3n2)c1 [Compound Z46532935] | 46% | 
COc1ccc2c(c1)CC/C(=C\c1ccc(Cl)c(Cl)c1)C2=O [Compound Z46584361] | 30% | 
COc1ccc2c(c1)CC/C(=C\c1cccc(C)c1)C2=O [Compound Z46584406] | -6% | 
O=C(/C=C/c1cc2ccccc2nc1N1CCOCC1)c1ccc(S(=O)(=O)N2CCCC2)cc1 [Compound Z46590414] | 1% | 
CN(C)c1ccc(/C=c2/s/c(=C/C(=O)C(C)(C)C)[nH]c2=O)cc1 [Compound Z46615661] | -8% | 
Cc1ccc(-n2c(=O)/c(=C/c3ccc4c(c3)OCO4)s/c2=C(/C#N)C(=O)NCCN2CCOCC2)c(C)c1 [Compound Z47840324] | -11% | 
Cc1ccc(C)c(-n2c(=O)/c(=C/c3ccc(OC(F)F)cc3)s/c2=C(/C#N)C(=O)NCCN2CCOCC2)c1 [Compound Z47852683] | 15% | 
CN(C)c1ccc(/C=c2/s/c(=C(/C#N)C(=O)NCCN3CCOCC3)n(Cc3ccco3)c2=O)cc1 [Compound Z48025165] | 27% | -4%
Cc1ccc(NC(=O)CC2SC(=Nc3ccccc3C)N(CCCN3CCOCC3)C2=O)c([N+](=O)[O-])c1 (stereo not drawn) [Compound Z48462494] | -3% | 
CCOC(=O)/C=c1\s/c(=C/c2ccc(N3CCCCC3)c([N+](=O)[O-])c2)c(=O)n1CC(=O)N1CCC(C)CC1 [Compound Z48712692] | 25% | 
CCOC(=O)/C=c1\s/c(=C/c2ccc(N3CCOCC3)c([N+](=O)[O-])c2)c(=O)n1CC(=O)N1CCC(C)CC1 [Compound Z48712790] | -4% | 
Cc1ccc(Cn2c(=O)/c(=C/c3ccc(N4CCOCC4)c([N+](=O)[O-])c3)s/c2=C/C(=O)C(C)(C)C)cc1 [Compound Z48770507] | 31% | 
N#C/C(=C(/O)CN1CCN(S(=O)(=O)c2ccccc2C#N)CC1)c1nc2ccccc2[nH]1 [Compound Z48805202] | -4% | 
NC(=O)c1cc(-c2csc(NCc3ccccc3)n2)ccc1O [Compound Z48850058] | 39% | 28%
